What all share (type): biochemical
For assay [1], the target named is T1, Human recombinant HDAC4 (Homo sapiens (Human), UniProt P56524). The experiment in a line: Test 1: HDAC4 assay (fluorogenic substrate, 10 μM acetyl-Gly-Ala-Lys(trifluoroacetyl)-AMC). The conditions noted are these: Test 1 (values indicated by an asterisk). The method, then: Test 1: HDAC4 Assay Description
Human recombinant HDAC4 was expressed in full length form (aa 2-1084) in Sf9 insect cells (obtained from ATCC) using baculovirus generated with Bac-to-Bac system (Invitrogen). Test compounds were serially diluted to reach final test concentrations from 0.003 μM to 100 μM. HDAC4 and test compounds were incubated in 25 mM Tris buffer pH 8.0 containing 137 mM NaCl, 2.7 mM KCl, 1 mM MgCl2 and 0.05% (w/v) bovine serum albumine for 2 hours at room temperature in presence of 10 μM of acetyl-Gly-Ala-Lys(E-trifluoroacetyl)-AMC (AMC=7-amino-4-methyl coumarin) in a final volume of 200 μl. Control wells with HDAC4 only (positive control) and without HDAC4 (negative control) were included on the microplate. Bovine trypsin (10 μl of a 0.4 mg/ml solution) was added and the plate incubated for additional 15 minutes at room temperature. The plate was placed in a fluorescence microplate reader, and read at an excitation wavelength of 360 nm and an emission wavelength of 450 nm with a cut-off filter of 435 nm. Fluorescence values for all wells containing HDAC4 (positive control and wells with test compound) were corrected by subtracting negative control fluorescence values, and IC50 values were calculated by fitting the dose-response curves to a 4-parameter logistic function.
HDAC4 IC50 values were obtained using Test 2, except those values indicated by an asterisk which were obtained using Test 1. NT=Not Tested

Assay [2] concerns the target T1, Human recombinant HDAC4. Kind of assay: Test 2: HDAC4 assay (fluorogenic substrate, 5 μM acetyl-Gly-Ala-Lys(ε-trifluoroacetyl)-AMC). The conditions noted are these: Test 2 (values without asterisk). An outline of the steps: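 After the reaction, bovine trypsin (300 nM solution) was added for 15 min at RT to develop the signal; fluorescence read at 360/450 nm. No-enzyme background subtracted; IC50 from 4-parameter logistic fit of dose-response curves.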

For assay [3], the target named is Human recombinant full length HDAC1 (Homo sapiens (Human), UniProt Q13547). The experiment in a line: Test 3: HDAC1 assay. To be noted: substrate 5 μM acetyl-Gly-Ala-Lys(acetyl)-AMC. An outline of the steps:
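Baculovirus-expressed full-length human HDAC1 with 5 μM acetyl-Gly-Ala-Lys(acetyl)-AMC substrate, developed with trypsin 15 min at room temperature.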

The target in assay [4] is Human recombinant full length HDAC6 (Homo sapiens (Human), UniProt Q9UBN7). The experiment in a line: Test 4: HDAC6 assay. To be noted: Test 4; substrate 5 μM acetyl-Gly-Ala-Lys(acetyl)-AMC. An outline of the steps: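 Baculovirus-expressed full-length recombinant human HDAC6 with 5 μM acetyl-Gly-Ala-Lys(acetyl)-AMC substrate, developed with trypsin 15 min at room temperature.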

This passage reports IC50 results from patent US9056843B2, “Trifluoromethyl-oxadiazole derivatives and their use in the treatment of disease” (NOVARTIS AG, priority 2011, dated 2015).

Human recombinant full length HDAC6, sequence (Q9UBN7 whole entry): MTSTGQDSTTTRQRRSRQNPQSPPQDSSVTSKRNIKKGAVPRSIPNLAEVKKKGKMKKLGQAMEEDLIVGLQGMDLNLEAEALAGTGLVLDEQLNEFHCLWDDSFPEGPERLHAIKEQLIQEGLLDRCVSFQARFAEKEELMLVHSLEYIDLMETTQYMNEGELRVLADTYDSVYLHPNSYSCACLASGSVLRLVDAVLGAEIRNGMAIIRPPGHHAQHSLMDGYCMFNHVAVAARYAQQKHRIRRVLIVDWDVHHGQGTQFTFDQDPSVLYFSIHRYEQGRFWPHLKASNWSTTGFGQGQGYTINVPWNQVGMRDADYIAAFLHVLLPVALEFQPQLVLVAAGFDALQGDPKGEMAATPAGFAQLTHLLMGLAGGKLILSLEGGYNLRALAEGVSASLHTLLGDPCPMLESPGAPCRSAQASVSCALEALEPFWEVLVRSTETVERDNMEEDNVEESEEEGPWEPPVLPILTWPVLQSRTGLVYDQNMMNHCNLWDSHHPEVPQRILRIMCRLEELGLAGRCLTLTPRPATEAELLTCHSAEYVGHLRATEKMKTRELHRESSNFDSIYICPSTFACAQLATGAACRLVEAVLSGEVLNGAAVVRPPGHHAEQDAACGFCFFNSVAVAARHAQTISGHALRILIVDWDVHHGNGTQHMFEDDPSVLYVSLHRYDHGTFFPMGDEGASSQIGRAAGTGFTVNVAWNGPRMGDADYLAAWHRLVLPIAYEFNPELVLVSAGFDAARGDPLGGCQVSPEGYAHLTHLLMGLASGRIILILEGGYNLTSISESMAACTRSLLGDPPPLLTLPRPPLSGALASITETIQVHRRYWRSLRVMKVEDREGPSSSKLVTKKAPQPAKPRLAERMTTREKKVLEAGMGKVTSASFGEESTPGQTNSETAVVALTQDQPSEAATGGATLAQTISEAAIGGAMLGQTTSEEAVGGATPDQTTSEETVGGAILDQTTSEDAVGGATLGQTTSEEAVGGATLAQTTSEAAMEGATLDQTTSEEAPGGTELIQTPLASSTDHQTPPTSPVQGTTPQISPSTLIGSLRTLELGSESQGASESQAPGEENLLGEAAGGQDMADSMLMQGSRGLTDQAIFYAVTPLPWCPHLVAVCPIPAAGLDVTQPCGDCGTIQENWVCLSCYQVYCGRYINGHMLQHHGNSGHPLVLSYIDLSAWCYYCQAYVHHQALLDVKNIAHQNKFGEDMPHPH
Human recombinant full length HDAC1, sequence (Q13547 whole entry): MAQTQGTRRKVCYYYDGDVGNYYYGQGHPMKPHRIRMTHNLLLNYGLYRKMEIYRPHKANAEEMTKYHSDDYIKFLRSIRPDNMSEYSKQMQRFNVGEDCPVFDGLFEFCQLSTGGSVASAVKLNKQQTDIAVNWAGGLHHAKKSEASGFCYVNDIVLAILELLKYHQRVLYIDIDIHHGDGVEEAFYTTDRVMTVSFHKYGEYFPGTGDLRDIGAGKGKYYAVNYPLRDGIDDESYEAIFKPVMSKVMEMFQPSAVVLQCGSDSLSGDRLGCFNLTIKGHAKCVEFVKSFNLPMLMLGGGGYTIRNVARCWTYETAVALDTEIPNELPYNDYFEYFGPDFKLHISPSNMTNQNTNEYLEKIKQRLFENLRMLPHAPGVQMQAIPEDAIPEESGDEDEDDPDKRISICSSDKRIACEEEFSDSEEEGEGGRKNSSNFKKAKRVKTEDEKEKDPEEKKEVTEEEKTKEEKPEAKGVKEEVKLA
T1 sequence (P56524 2-1084): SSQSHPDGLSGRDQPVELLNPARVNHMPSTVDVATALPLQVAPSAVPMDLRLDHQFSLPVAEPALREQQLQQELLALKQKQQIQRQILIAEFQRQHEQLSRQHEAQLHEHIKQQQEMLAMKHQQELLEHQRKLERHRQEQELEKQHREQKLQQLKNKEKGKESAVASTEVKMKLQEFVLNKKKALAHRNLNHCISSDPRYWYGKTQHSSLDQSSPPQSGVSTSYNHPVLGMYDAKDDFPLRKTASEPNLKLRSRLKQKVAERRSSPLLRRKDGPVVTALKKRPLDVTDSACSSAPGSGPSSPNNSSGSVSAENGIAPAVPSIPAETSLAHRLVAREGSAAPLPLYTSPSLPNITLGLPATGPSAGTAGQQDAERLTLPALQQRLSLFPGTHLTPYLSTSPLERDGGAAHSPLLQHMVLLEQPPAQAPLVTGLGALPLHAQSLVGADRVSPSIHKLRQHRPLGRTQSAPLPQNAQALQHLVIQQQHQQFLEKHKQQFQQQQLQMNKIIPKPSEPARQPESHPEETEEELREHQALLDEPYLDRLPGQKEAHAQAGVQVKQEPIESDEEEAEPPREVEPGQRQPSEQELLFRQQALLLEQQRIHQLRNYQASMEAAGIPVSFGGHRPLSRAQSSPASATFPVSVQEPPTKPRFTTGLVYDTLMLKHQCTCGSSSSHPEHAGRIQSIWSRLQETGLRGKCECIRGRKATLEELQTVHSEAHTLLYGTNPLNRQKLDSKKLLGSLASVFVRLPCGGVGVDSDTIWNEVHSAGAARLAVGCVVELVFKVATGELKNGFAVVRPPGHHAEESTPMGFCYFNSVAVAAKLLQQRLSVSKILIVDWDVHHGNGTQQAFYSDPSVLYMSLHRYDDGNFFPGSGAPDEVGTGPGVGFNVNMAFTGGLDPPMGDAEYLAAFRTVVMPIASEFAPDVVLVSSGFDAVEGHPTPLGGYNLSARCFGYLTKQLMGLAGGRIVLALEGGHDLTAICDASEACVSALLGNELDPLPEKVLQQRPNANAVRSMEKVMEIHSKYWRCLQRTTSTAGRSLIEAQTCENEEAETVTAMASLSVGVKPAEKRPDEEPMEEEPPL

What is called IC50 is the concentration that gives 50% inhibition. Consider `CN(C)c1ccc(NC(=O)c2ccc(-c3noc(C(F)(F)F)n3)cc2)cc1` [Example 41, N-(4-(dimethylamino)phenyl)-4-(5-(trifluoromethyl)-1,2,4-oxadiazol-3-yl)benzamide], for which the concentration for half-maximal inhibition (IC50) in assay [1] was determined as 1.5 µM.

On to `O=S(=O)(Nc1cccc(F)c1)c1ccc(-c2noc(C(F)(F)F)n2)cc1` [Example 106, N-(3-fluorophenyl)-4-(5-(trifluoromethyl)-1,2,4-oxadiazol-3-yl)benzenesulfonamide], for which the IC50 in assay [1] was 0.2 µM.

For the molecule `Cc1cc(NC(=O)c2ccc(-c3noc(C(F)(F)F)n3)cc2)ccn1` [Example 70, N-(2-methylpyridin-4-yl)-4-(5-(trifluoromethyl)-1,2,4-oxadiazol-3-yl)benzamide], the 50% inhibitory concentration (IC50) in assay [1] came to 0.09 µM.

As for `CCN(CC)C[C@H](C)NC(=O)c1ccc(-c2noc(C(F)(F)F)n2)cc1` [Example 133, (S)—N-(1-(diethylamino)propan-2-yl)-4-(5-(trifluoromethyl)-1,2,4-oxadiazol-3-yl)benzamide], the half-inhibitory concentration (IC50) in assay [1] is 0.048 µM.

As for `O=S(=O)(Nc1cccnc1)c1ccc(-c2noc(C(F)(F)F)n2)cc1` [Example 100, N-(ppyridin-3-yl)-4-(5-(trifluoromethyl)-1,2,4-oxadiazol-3-yl)benzenesulfonamide], in assay [1], the 50% inhibitory concentration (IC50) came out at 0.07 µM.

Take `CN(C)C[C@@H](Cc1ccccc1)NC(=O)c1ccc(-c2noc(C(F)(F)F)n2)cc1` [Example 92, (R)—N-(1-(dimethylamino)-3-phenylpropan-2-yl)-4-(5-(trifluoromethyl)-1,2,4-oxadiazol-3-yl)benzamide]: the figures for the IC50 in assay [2], in assay [3] and in assay [4] were 0.085 µM, more than 6.8 µM and 4 µM, respectively.

On to `C[C@H](CO)NC(=O)c1ccc(-c2noc(C(F)(F)F)n2)cc1` [Example 28, (R)—N-(1-hydroxyypropan-2-yl)-4-(5-(trifluoromethyl)-1,2,4-oxadiazol-3-yl)benzamide], for which the half-maximal inhibitory concentration (IC50) in assay [2] is 0.35 µM; in assay [3], more than 10 µM; in assay [4], 7.7 µM.

Consider `O=C(Nc1ccnc(Cl)c1)c1ccc(-c2noc(C(F)(F)F)n2)cc1` [Example 75, N-(2-chloropyridin-4-yl)-4-(5-(trifluoromethyl)-1,2,4-oxadiazol-3-yl)benzamide], for which the IC50 is 0.16 µM in assay [2], more than 10 µM in assay [3] and more than 10 µM in assay [4].

On to `CC(C)CC(CO)NC(=O)c1ccc(-c2noc(C(F)(F)F)n2)cc1` (stereo not drawn) [Example 58, N-(1-hydroxy-4-methylpentan-2-yl)-4-(5-(trifluoromethyl)-1,2,4-oxadiazol-3-yl)benzamide], for which the half-inhibitory concentration (IC50) in assay [2] was 0.65 µM; in assay [3] it was more than 10 µM; in assay [4], 5.5 µM.

For the molecule `O=C(NC1CC1)c1ccc(-c2noc(C(F)(F)F)n2)cc1` [Example 19, N-cyclopropyl-4-(5-(trifluoromethyl)-1,2,4-oxadiazol-3-yl)benzamide], in assay [1], the 50% inhibitory concentration (IC50) is 0.12 µM.

On to `O=C(NC1CCC1)c1ccc(-c2noc(C(F)(F)F)n2)cc1` [Example 25, N-cyclobutyl-4-(5-(trifluoromethyl)-1,2,4-oxadiazol-3-yl)benzamide], for which the half-inhibitory concentration (IC50) in assay [2] is 0.47 µM; in assay [3], more than 10 µM; in assay [4] it was 6.5 µM.

With `CCCN(C)C[C@@H](C)NC(=O)c1ccc(-c2noc(C(F)(F)F)n2)cc1F` [Example 143, (R)-2-fluoro-N-(1-(methyl(propyl)amino)propan-2-yl)-4-(5-(trifluoromethyl)-1,2,4-oxadiazol-3-yl)benzamide], the figures for the IC50 in assay [2], in assay [3] and in assay [4] were 0.0012 µM, 5.8 µM and 3.3 µM, respectively.

Consider `C[C@H](CN1CCOCC1)NC(=O)c1ccc(-c2noc(C(F)(F)F)n2)cc1` [Example 147, (R)—N-(1-morpholinopropan-2-yl)-4-(5-(trifluoromethyl)-1,2,4-oxadiazol-3-yl)benzamide], for which the values for the IC50 in assay [2], in assay [3] and in assay [4] were 0.3 µM, more than 10 µM and 6.7 µM, respectively.

For the molecule `CN(C)CCCN(C)S(=O)(=O)c1ccc(-c2noc(C(F)(F)F)n2)cc1` [Example 112, N-(3-(dimethylamino)propyl)-N-methyl-4-(5-(trifluoromethyl)-1,2,4-oxadiazol-3-yl)benzenesulfonamide], the IC50 in assay [2] is 0.82 µM; in assay [3] it was more than 10 µM; in assay [4], 9.1 µM.

In the case of `O=C(NCCO)c1ccc(-c2noc(C(F)(F)F)n2)cc1` [Example 13, N-(2-hydroxyethyl)-4-(5-(trifluoromethyl)-1,2,4-oxadiazol-3-yl)benzamide], the half-inhibitory concentration (IC50) is 0.66 µM in assay [2], more than 10 µM in assay [3] and 8.9 µM in assay [4].

For the molecule `O=C(NC1CCCCC1)c1ccc(-c2noc(C(F)(F)F)n2)cc1` [Example 34, N-cyclohexyl-4-(5-(trifluoromethyl)-1,2,4-oxadiazol-3-yl)benzamide], the figures for the IC50 in assay [2], in assay [3] and in assay [4] were 0.75 µM, more than 10 µM and more than 10 µM, respectively.

On to `C[C@H](CN1CCCCC1)NC(=O)c1ccc(-c2noc(C(F)(F)F)n2)cc1` [Example 131, (R)—N-(1-(piperidin-1-yl)propan-2-yl)-4-(5-(trifluoromethyl)-1,2,4-oxadiazol-3-yl)benzamide], for which the concentration for half-maximal inhibition (IC50) worked out at 0.01 µM in assay [2], 6.55 µM in assay [3] and 7.5 µM in assay [4].

For the molecule `CC(CNC(=O)c1ccc(-c2noc(C(F)(F)F)n2)cc1)N(C)C` (stereo not drawn) [Example 51, N-(2-(dimethylamino)propyl)-4-(5-(trifluoromethyl)-1,2,4-oxadiazol-3-yl)benzamide], the concentration for half-maximal inhibition (IC50) in assay [2] is 0.09 µM; in assay [3], more than 10 µM; in assay [4] it was 10 µM.

Take `CC(C)[C@H](CN(C)C)NC(=O)c1ccc(-c2noc(C(F)(F)F)n2)cc1F` [Example 89, (R)—N-(1-(dimethylamino)-3-methylbutan-2-yl)-2-fluoro-4-(5-(trifluoromethyl)-1,2,4-oxadiazol-3-yl)benzamide]: the IC50 in assay [2] was 0.045 µM; in assay [3], more than 10 µM; in assay [4] it was more than 10 µM.

Turning to `O=C(c1ccc(-c2noc(C(F)(F)F)n2)cc1)N1CCCC1` [Example 23, Pyrrolidin-1-yl(4-(5-(trifluoromethyl)-1,2,4-oxadiazol-3-yl)phenyl)methanone], the half-maximal inhibitory concentration (IC50) in assay [2] is 1.5 µM; in assay [3], more than 10 µM; in assay [4], 6 µM.

Regarding `CCN(C)C[C@@H](C)NC(=O)c1ccc(-c2noc(C(F)(F)F)n2)cc1` [Example 136, (R)—N-(1-(ethyl(methyl)amino)propan-2-yl)-4-(5-(trifluoromethyl)-1,2,4-oxadiazol-3-yl)benzamide], the IC50 is 0.0089 µM in assay [2], more than 10 µM in assay [3] and more than 10 µM in assay [4].

Consider `CC(C)[C@@H](CN(C)C)NC(=O)c1ccc(-c2noc(C(F)(F)F)n2)cc1` [Example 83, (S)—N-(1-(dimethylamino)-3-methylbutan-2-yl)-4-(5-(trifluoromethyl)-1,2,4-oxadiazol-3-yl)benzamide], for which the half-maximal inhibitory concentration (IC50) in assay [2] was 0.015 µM; in assay [3] it was more than 10 µM; in assay [4], more than 10 µM.
